How the values were obtained:
Assay in all cases: relative viability (nuclei count vs DMSO), 5 days (fraction); higher = more cells survive
NCI-H1437 = system: NCI-H1437
Method in brief: (§1)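 Cells from lung cancer lines were seeded into 1536-well plates and, one day later, dosed by pin tool. Treatments were either a single drug or a fixed dose of an anchor drug with five library-drug doses (not always all listed) in √10 steps. After 5 days, nuclei were stained in a one-step fixation (final 0.05% Triton X-100, 1% formaldehyde, 1 ug/ml Hoechst) and counted on 4× images, and relative viability is the treated-to-vehicle nuclei ratio, as the median of duplicate plates.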

NCI-H1792 = system: NCI-H1792
Method in brief: as §1

NCI-H2170 = system: NCI-H2170
Method in brief: as §1

NCI-H1734 = system: NCI-H1734
Method in brief: as §1

BEN = system: BEN
Method in brief: as §1

NCI-H661 = system: NCI-H661
Method in brief: as §1

EKVX = system: EKVX
Method in brief: as §1

NCI-H1993 = system: NCI-H1993
Method in brief: as §1

NCI-H2087 = system: NCI-H2087
Method in brief: as §1

SK-LU-1 = system: SK-LU-1
Method in brief: as §1

NCI-H1355 = system: NCI-H1355
Method in brief: as §1

LOU-NH91 = system: LOU-NH91
Method in brief: as §1

HCC-366 = system: HCC-366
Method in brief: as §1

SK-MES-1 = system: SK-MES-1
Method in brief: as §1

HCC-827 = system: HCC-827
Method in brief: as §1

NCI-H647 = system: NCI-H647
Method in brief: as §1

HARA = system: HARA
Method in brief: as §1

NCI-H2405 = system: NCI-H2405
Method in brief: as §1

NCI-H2009 = system: NCI-H2009
Method in brief: as §1

NCI-H1395 = system: NCI-H1395
Method in brief: as §1

Q: Which results are given for `CC(=O)O[C@@]12CO[C@@H]1C[C@H](O)[C@@]1(C)C(=O)[C@H](O)C3=C(C)[C@@H](OC(=O)[C@H](O)[C@@H](NC(=O)OC(C)(C)C)c4ccccc4)C[C@@](O)([C@@H](OC(=O)c4ccccc4)[C@H]21)C3(C)C` [Docetaxel] + Cc1nc(NC(=O)N2CCC[C@H]2C(N)=O)sc1-c1ccnc(C(C)(C)C(F)(F)F)c1 [Alpelisib] (partner 2 µM)?
A: relative viability (NCI-H1437; first compound 0.0002 µM): 0.888; relative viability (NCI-H1437; first compound 0.000632 µM): 0.759; relative viability (NCI-H1437; first compound 0.002 µM): 0.156; relative viability (NCI-H1437; first compound 0.006325 µM): 0.124; relative viability (NCI-H1437; first compound 0.02 µM): 0.0738; relative viability (NCI-H1792; first compound 0.0002 µM): 0.728; relative viability (NCI-H1792; first compound 0.000632 µM): 0.655; relative viability (NCI-H1792; first compound 0.002 µM): 0.401; relative viability (NCI-H1792; first compound 0.02 µM): 0.0824; relative viability (NCI-H2170; first compound 0.0002 µM): 0.83; relative viability (NCI-H2170; first compound 0.000632 µM): 0.632; relative viability (NCI-H2170; first compound 0.002 µM): 0.451; relative viability (NCI-H2170; first compound 0.006325 µM): 0.228; relative viability (NCI-H2170; first compound 0.02 µM): 0.175; relative viability (NCI-H1734; first compound 0.0002 µM): 0.614; relative viability (NCI-H1734; first compound 0.000632 µM): 0.67; relative viability (NCI-H1734; first compound 0.002 µM): 0.406; relative viability (NCI-H1734; first compound 0.006325 µM): 0.355; relative viability (NCI-H1734; first compound 0.02 µM): 0.267; relative viability (BEN; first compound 0.0002 µM): 0.875; relative viability (BEN; first compound 0.000632 µM): 0.897; relative viability (BEN; first compound 0.002 µM): 0.505; relative viability (BEN; first compound 0.006325 µM): 0.261; relative viability (BEN; first compound 0.02 µM): 0.19; relative viability (NCI-H661; first compound 0.0002 µM): 0.468; relative viability (NCI-H661; first compound 0.000632 µM): 0.582; relative viability (NCI-H661; first compound 0.002 µM): 0.411; relative viability (NCI-H661; first compound 0.006325 µM): 0.344; relative viability (NCI-H661; first compound 0.02 µM): 0.176; relative viability (EKVX; first compound 0.0002 µM): 0.884; relative viability (EKVX; first compound 0.000632 µM): 0.853; relative viability (EKVX; first compound 0.002 µM): 0.435; relative viability (EKVX; first compound 0.006325 µM): 0.25; relative viability (EKVX; first compound 0.02 µM): 0.146; relative viability (NCI-H1993; first compound 0.0002 µM): 0.727; relative viability (NCI-H1993; first compound 0.000632 µM): 0.62; relative viability (NCI-H1993; first compound 0.002 µM): 0.741; relative viability (NCI-H1993; first compound 0.006325 µM): 0.525; relative viability (NCI-H1993; first compound 0.02 µM): 0.454; relative viability (NCI-H2087; first compound 0.0002 µM): 0.916; relative viability (NCI-H2087; first compound 0.000632 µM): 0.753; relative viability (NCI-H2087; first compound 0.002 µM): 0.253; relative viability (NCI-H2087; first compound 0.006325 µM): 0.193; relative viability (NCI-H2087; first compound 0.02 µM): 0.15; relative viability (SK-LU-1; first compound 0.0002 µM): 0.766; relative viability (SK-LU-1; first compound 0.000632 µM): 0.467; relative viability (SK-LU-1; first compound 0.002 µM): 0.495; relative viability (SK-LU-1; first compound 0.006325 µM): 0.26; relative viability (SK-LU-1; first compound 0.02 µM): 0.228; relative viability (NCI-H1355; first compound 0.0002 µM): 0.726; relative viability (NCI-H1355; first compound 0.000632 µM): 0.768; relative viability (NCI-H1355; first compound 0.002 µM): 0.435; relative viability (NCI-H1355; first compound 0.006325 µM): 0.313; relative viability (NCI-H1355; first compound 0.02 µM): 0.189; relative viability (LOU-NH91; first compound 0.0002 µM): 0.73; relative viability (LOU-NH91; first compound 0.000632 µM): 0.737; relative viability (LOU-NH91; first compound 0.002 µM): 0.565; relative viability (LOU-NH91; first compound 0.006325 µM): 0.394; relative viability (LOU-NH91; first compound 0.02 µM): 0.368; relative viability (HCC-366; first compound 0.0002 µM): 0.331; relative viability (HCC-366; first compound 0.000632 µM): 0.311; relative viability (HCC-366; first compound 0.002 µM): 0.0519; relative viability (HCC-366; first compound 0.006325 µM): 0.0149; relative viability (HCC-366; first compound 0.02 µM): 0.0109; relative viability (SK-MES-1; first compound 0.0002 µM): 0.932; relative viability (SK-MES-1; first compound 0.000632 µM): 0.892; relative viability (SK-MES-1; first compound 0.002 µM): 0.484; relative viability (SK-MES-1; first compound 0.006325 µM): 0.224; relative viability (SK-MES-1; first compound 0.02 µM): 0.104; relative viability (HCC-827; first compound 0.0002 µM): 0.981; relative viability (HCC-827; first compound 0.000632 µM): 0.992; relative viability (HCC-827; first compound 0.002 µM): 0.706; relative viability (HCC-827; first compound 0.006325 µM): 0.288; relative viability (HCC-827; first compound 0.02 µM): 0.282; relative viability (NCI-H647; first compound 0.0002 µM): 0.903; relative viability (NCI-H647; first compound 0.000632 µM): 0.347; relative viability (NCI-H647; first compound 0.002 µM): 0.189; relative viability (NCI-H647; first compound 0.006325 µM): 0.0725; relative viability (NCI-H647; first compound 0.02 µM): 0.0507; relative viability (HARA; first compound 0.0002 µM): 0.778; relative viability (HARA; first compound 0.000632 µM): 0.525; relative viability (HARA; first compound 0.002 µM): 0.282; relative viability (HARA; first compound 0.006325 µM): 0.114; relative viability (HARA; first compound 0.02 µM): 0.0727; relative viability (NCI-H2405; first compound 0.0002 µM): 0.894; relative viability (NCI-H2405; first compound 0.000632 µM): 0.677; relative viability (NCI-H2405; first compound 0.002 µM): 0.467; relative viability (NCI-H2405; first compound 0.006325 µM): 0.448; relative viability (NCI-H2405; first compound 0.02 µM): 0.288; relative viability (NCI-H2009; first compound 0.0002 µM): 1.13; relative viability (NCI-H2009; first compound 0.000632 µM): 1.16; relative viability (NCI-H2009; first compound 0.002 µM): 0.988; relative viability (NCI-H2009; first compound 0.006325 µM): 0.765; relative viability (NCI-H2009; first compound 0.02 µM): 0.157; relative viability (NCI-H1395; first compound 0.0002 µM): 1; relative viability (NCI-H1395; first compound 0.000632 µM): 1.02; relative viability (NCI-H1395; first compound 0.002 µM): 1.35; relative viability (NCI-H1395; first compound 0.006325 µM): 0.638; relative viability (NCI-H1395; first compound 0.02 µM): 0.307

From the supplement of paper PMC10307832
